In ChEMBL document CHEMBL5365471, “Discovery of marine phidianidine-based Nrf2 activators and their potential against oxLDL- and HG-induced injury in HUVECs” (Bioorg Med Chem Lett, 2023):
Calls of active or inactive are those of the source. The calls are words filed in the database; no cut-off is given here.

Columns and labels:
HUVEC [1] = assay: Cytoprotective activity against oxLDL-induced HUVEC cell damage assessed as increase in cell viability at 10 uM by SRB assay; type: functional, cell-based; conditions: Homo sapiens
[2] = molecular target: T1, Nuclear factor erythroid 2-related factor 2 (Homo sapiens) (UniProt Q16236); assay: Induction of Nrf2/ARE activation in human Hela cells at 1 uM measured after 12 to 24 hrs by luciferase reporter gene assay relative to control; type: cell-based; conditions: filed as activator, time 12-24 hrs
T1 sequence (whole entry): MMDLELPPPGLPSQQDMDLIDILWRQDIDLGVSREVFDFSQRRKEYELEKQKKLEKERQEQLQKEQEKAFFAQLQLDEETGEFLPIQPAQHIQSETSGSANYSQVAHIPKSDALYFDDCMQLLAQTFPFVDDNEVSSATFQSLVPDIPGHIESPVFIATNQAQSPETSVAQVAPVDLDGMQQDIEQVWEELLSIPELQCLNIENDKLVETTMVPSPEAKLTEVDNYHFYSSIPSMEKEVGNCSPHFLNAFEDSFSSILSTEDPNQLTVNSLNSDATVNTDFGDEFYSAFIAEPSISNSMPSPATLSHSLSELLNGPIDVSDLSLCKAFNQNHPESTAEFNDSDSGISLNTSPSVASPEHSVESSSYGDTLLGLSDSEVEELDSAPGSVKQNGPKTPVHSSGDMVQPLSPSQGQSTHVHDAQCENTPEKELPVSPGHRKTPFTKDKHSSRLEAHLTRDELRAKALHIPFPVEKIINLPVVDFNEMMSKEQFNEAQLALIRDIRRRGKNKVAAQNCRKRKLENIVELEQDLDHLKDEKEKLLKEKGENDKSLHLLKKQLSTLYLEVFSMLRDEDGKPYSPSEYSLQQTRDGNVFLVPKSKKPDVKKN

[3] = molecular target: T1, Nuclear factor erythroid 2-related factor 2 (Homo sapiens); assay: Induction of Nrf2/ARE activation in human Hela cells at 5 uM measured after 12 to 24 hrs by luciferase reporter gene assay relative to control; type: cell-based; conditions: filed as activator, time 12-24 hrs
[4] = molecular target: T1, Nuclear factor erythroid 2-related factor 2 (Homo sapiens); assay: Induction of Nrf2/ARE activation in human Hela cells at 10 uM measured after 12 to 24 hrs by luciferase reporter gene assay relative to control; type: cell-based; conditions: filed as activator, time 12-24 hrs
[5] = molecular target: T1, Nuclear factor erythroid 2-related factor 2 (Homo sapiens); assay: Induction of Nrf2/ARE activation in human Hela cells at 20 uM measured after 12 to 24 hrs by luciferase reporter gene assay relative to control; type: cell-based; conditions: filed as activator, time 12-24 hrs
HUVEC [6] = assay: Cytotoxicity against HUVEC assessed as effect on cell viability by SRB assay; type: toxicity, cell-based; conditions: human

Row | Structure (SMILES) | fold change (FC) [2] | fold change (FC) [3] | fold change (FC) [4] | fold change (FC) [5] | Activity (HUVEC [1]) | Activity (HUVEC [6])
1 | CS(=O)(=O)c1ccc(C(=O)N2CCN(Cc3noc(Cc4c[nH]c5ccccc45)n3)CC2)cc1 | 1.45 | 1.5 | 1.52 | 1.67 |  | 
2 | O=C(/C=C/c1ccc(Cl)cc1)N1CCN(Cc2noc(Cc3c[nH]c4ccccc34)n2)CC1 | 1.21 | 2.24 | 4.09 | 6.12 | Active | Non-Toxic
3 | O=C(c1ccc(Br)cc1)N1CCN(Cc2noc(Cc3c[nH]c4ccccc34)n2)CC1 | 1.15 | 1.21 | 1.28 | 1.52 |  | 
4 | O=C(/C=C/c1ccccc1O)N1CCN(Cc2noc(Cc3c[nH]c4ccccc34)n2)CC1 | 1.2 | 3.01 | 6.31 | 6.08 |  | 
5 | CC(C)(C)c1cc(O)ccc1O | 1.17 | 1.24 | 1.98 | 2.78 |  | 
6 | COc1cccc(CN2CCN(Cc3noc(Cc4c[nH]c5ccccc45)n3)CC2)c1 | 1.15 | 1.12 | 1.43 | 1.47 |  | 
7 | COc1cc(/C=C/C(=O)N2CCN(Cc3noc(Cc4c[nH]c5ccccc45)n3)CC2)cc(OC)c1O | 1.23 | 1.87 | 2.65 | 3.08 |  | 
8 | c1ccc2cc(CN3CCN(Cc4noc(Cc5c[nH]c6ccccc56)n4)CC3)ccc2c1 | 1.09 | 1.51 | 1.86 | 2.04 |  | 
9 | COc1ccc(OC)c(/C=C/C(=O)N2CCN(Cc3noc(Cc4c[nH]c5ccccc45)n3)CC2)c1 | 1.12 | 1.77 | 4.35 | 3.66 |  | 
10 | N#Cc1ccc(C(=O)N2CCN(Cc3noc(Cc4c[nH]c5ccccc45)n3)CC2)cc1 | 1.18 | 1.25 | 1.37 | 1.4 |  | 
11 | O=C(/C=C/c1ccc2c(c1)OCO2)N1CCN(Cc2noc(Cc3c[nH]c4ccccc34)n2)CC1 | 1.12 | 2.07 | 4.97 | 3.24 |  | 
12 | O=C(/C=C/c1cccc(O)c1)N1CCN(Cc2noc(Cc3c[nH]c4ccccc34)n2)CC1 | 2.3 | 4.71 | 7.04 | 7.21 | Active | Non-Toxic
13 | Brc1cccc(CN2CCN(Cc3noc(Cc4c[nH]c5ccccc45)n3)CC2)c1 | 1.12 | 1.25 | 1.31 | 1.54 |  | 
14 | COc1ccccc1/C=C/C(=O)N1CCN(Cc2noc(Cc3c[nH]c4ccccc34)n2)CC1 | 1.23 | 2.41 | 3.12 | 4.25 |  | 
15 | O=C(/C=C/c1ccc(O)c(O)c1)N1CCN(Cc2noc(Cc3c[nH]c4ccccc34)n2)CC1 | 1.41 | 2.96 | 6.92 | 7.86 |  | 
16 | COc1ccc(/C=C/C(=O)N2CCN(Cc3noc(Cc4c[nH]c5ccccc45)n3)CC2)cc1 | 1.22 | 1.65 | 1.96 | 2.07 |  | 
17 | Brc1ccc(CN2CCN(Cc3noc(Cc4c[nH]c5ccccc45)n3)CC2)cc1 | 1.45 | 2.16 | 3.14 | 3.56 |  | 
18 | O=C(/C=C/c1cccc(Br)c1)N1CCN(Cc2noc(Cc3c[nH]c4ccccc34)n2)CC1 | 1.31 | 1.86 | 3.97 | 2.56 | inactive | Non-Toxic
19 | COc1cc(OC)c(OC)cc1/C=C/C(=O)N1CCN(Cc2noc(Cc3c[nH]c4ccccc34)n2)CC1 | 1.32 | 2.79 | 5.79 | 5.46 | inactive | Non-Toxic
20 | COc1cccc(/C=C/C(=O)N2CCN(Cc3noc(Cc4c[nH]c5ccccc45)n3)CC2)c1OC | 2.15 | 3.65 | 6.91 | 6.37 | inactive | Non-Toxic
21 | COc1cc(/C=C/C(=O)N2CCN(Cc3noc(Cc4c[nH]c5ccccc45)n3)CC2)ccc1O | 1.29 | 2.34 | 3.12 | 3.56 |  | 
22 | O=C(/C=C/c1ccccc1)N1CCN(Cc2noc(Cc3c[nH]c4ccccc34)n2)CC1 | 1.05 | 1.32 | 2.57 | 2.89 |  | 

Second part, led by results:

Row | fold change (FC) [2] | fold change (FC) [3] | fold change (FC) [4] | fold change (FC) [5] | Structure (SMILES) | Activity (HUVEC [1]) | Activity (HUVEC [6])
23 | 1.52 | 3.44 | 6.25 | 5.41 | O=C(/C=C/c1ccc(O)cc1)N1CCN(Cc2noc(Cc3c[nH]c4ccccc34)n2)CC1 | inactive | Non-Toxic
24 | 1.34 | 3.76 | 6.64 | 7.09 | O=C(/C=C/c1ccc(Cl)c(Cl)c1)N1CCN(Cc2noc(Cc3c[nH]c4ccccc34)n2)CC1 | Active | Non-Toxic
25 | 1.09 | 1.89 | 2.97 | 4.07 | COc1cccc(/C=C/C(=O)N2CCN(Cc3noc(Cc4c[nH]c5ccccc45)n3)CC2)c1 |  | 
26 | 1.36 | 1.42 | 1.54 | 1.86 | Fc1cccc(CN2CCN(Cc3noc(Cc4c[nH]c5ccccc45)n3)CC2)c1 |  | 
27 | 1.04 | 1.11 | 1.23 | 1.36 | Cc1ccc(C(=O)N2CCN(Cc3noc(Cc4c[nH]c5ccccc45)n3)CC2)cc1 |  | 
28 | 1.34 | 2.93 | 5.79 | 7.22 | COc1ccc(/C=C/C(=O)N2CCN(Cc3noc(Cc4c[nH]c5ccccc45)n3)CC2)cc1OC |  | 
29 | 1.24 | 2.6 | 6.23 | 6.86 | COc1cc(/C=C/C(=O)N2CCN(Cc3noc(Cc4c[nH]c5ccccc45)n3)CC2)cc(OC)c1OC |  | 
30 | 1.11 | 2.04 | 3.15 | 3.78 | CS(=O)(=O)c1ccc(CN2CCN(Cc3noc(Cc4c[nH]c5ccccc45)n3)CC2)cc1 |  | 
31 | 1.09 | 1.51 | 1.64 | 2.09 | c1ccc(CN2CCN(Cc3noc(Cc4c[nH]c5ccccc45)n3)CC2)cc1 |  | 
32 | 1.18 | 1.78 | 2.11 | 2.45 | Cc1ccc(CN2CCN(Cc3noc(Cc4c[nH]c5ccccc45)n3)CC2)cc1 |  | 
33 | 1.03 | 1.31 | 1.44 | 1.21 | O=C(c1ccccc1)N1CCN(Cc2noc(Cc3c[nH]c4ccccc34)n2)CC1 |  | 
